Data from patent US5516796A, “Thioprostaglandins and -prostaglandin-like compounds and therapeutic uses thereof” (Kabi Pharmacia AB, priority 1994, dated 1996).

Experiments:
eye [1] = assay: Ocular irritation (discomfort) after topical application, scale 0-3; assay type: in vivo, cats; details: for Maximum ocular irritation, Difference (experimental vs contralateral control eye): cats, topical, mean ± SEM, n = 6; for Ocular irritation grade (maximum irritation): same test system
Description: (§1) Experiments were performed in cats and rabbits. The test compounds were administered topically to the eye. The compounds were tested by using a single dose of each concentration. The intraocular pressure in cats was measured with a pneumotonometer (Digilab Modular One, BioRad). Before the measurement the cornea was anaesthetized with 1-2 drops of oxibuprocain. The ocular irritation (discomfort) caused by the test compounds was assessed without anaesthesia in the same animals. The irritation was graded on an arbitrary scale 0-3, 0 indicating absence of irritation, and 3 indicating maximum irritation as obvious from complete lid closure. Surface hyperemia of the eye (redness of the eye) was evaluated in rabbits. The eye was photographed at regular intervals and the degree of hyperemia was evaluated from the color photographs in a masked way. The hyperemia was evaluated on an arbitrary scale 0-5, 0 indicating absence of hyperemia and 5 marked hyperemia and conjunctival chemosis. All compounds were formulated in physiologic saline using polysorbate 80 as solubilizer. The same volume of the vehicle only was applied topically on the contralateral control eye.
Maximum ocular irritation after topical
application of different thioprostaglandin compounds in
cats. The values represent the difference between the
experimental and contralateral control eyes (Mean ± SEM,

cat iris sphincter = assay: In vitro bioassay, cat iris sphincter
Source text: (§2) In vitro bioassay studies of thioprostaglandins according to this invention have shown that such thioprostaglandins exert biological effects on several mammalian tissues and organ systems. […] These biological effects have no known relationship to the IOP lowering effects of these prostaglandins.

bovine iris sphincter = assay: In vitro bioassay, bovine iris sphincter
Source text: as §2

[2] = tested on: circular preparation of the guinea pig ileum; assay: In vitro bioassay, guinea pig ileum circular preparation
Source text: as §2

eye [3] = assay: Maximum reduction of intraocular pressure in cats after topical application; assay type: in vivo; details: for Intraocular pressure, Exp Eye / Maximum reduction of intraocular pressure, Difference (Exp Eye vs Cont Eye): 1-3 hours after application, mean ± SEM, n = 6
Description: as §1
Maximum reduction of intraocular pressure in cats 1-3 hours after
application of different thioprostaglandin compounds (Mean ± SEM; n =

platelet aggregation = assay: In vitro bioassay, platelet aggregation; assay type: cell-based
Source text: as §2

rat gastric fundus = assay: In vitro bioassay, rat gastric fundus
Source text: as §2

eye [4] = assay: Surface hyperemia of the eye after topical application, scale 0-5; assay type: in vivo, rabbits; details: 0.5 μg; for Maximum surface hyperemia of the eye, Difference (Exp Eye vs Cont Eye) / Maximum surface hyperemia of the eye, Exp Eye: rabbits, topical, mean ± SEM, n = 6; for Ocular surface hyperemia grade: same test system
Description: as §1
Maximum surface hyperemia of the eye after
topical application of different thioprostaglandins in
rabbits. (Mean ± SEM, n = 6).

Row | Compound | Maximum surface hyperemia of the eye, Difference (Exp Eye vs Cont Eye) (eye [4]) | Maximum surface hyperemia of the eye, Exp Eye (eye [4]) | Maximum ocular irritation, Difference (experimental vs contralateral control eye) (eye [1]; 3 μg) | Intraocular pressure, Exp Eye (eye [3]; 3 ug) | Maximum reduction of intraocular pressure, Difference (Exp Eye vs Cont Eye) (eye [3]; 3 ug) | Maximum ocular irritation, Difference (experimental vs contralateral control eye) (eye [1]; 1 μg) | Intraocular pressure, Exp Eye (eye [3]; 1 ug) | Maximum reduction of intraocular pressure, Difference (Exp Eye vs Cont Eye) (eye [3]; 1 ug) | further results
1 | CCCCC[C@H](O)/C=C/[C@H]1C(SCc2ccccc2)CC(=O)[C@@H]1C/C=C\CCCC(=O)OCc1ccccc1 (some centres unmarked) [Compound 3, 11-deoxy-11-thiobenzyl-PGE2 benzyl ester] | – | – | 0.08 ± -0.08 | 14.7 ± -0.7 mmHg | -3.7 ± -1.3 mmHg | – | – | – | Maximum ocular irritation, Difference (experimental vs contralateral control eye) (eye [1]; 5 μg): 1.33 ± -0.1; Stimulation of the cat iris sphincter (cat iris sphincter): stimulate; Stimulation of the bovine iris sphincter (bovine iris sphincter): stimulate; Stimulation of the circular preparation of the guinea pig ileum [2]: stimulate; Intraocular pressure, Exp Eye (eye [3]; 5 ug): 13.0 ± -0.4 mmHg; Maximum reduction of intraocular pressure, Difference (Exp Eye vs Cont Eye) (eye [3]; 5 ug): -3.8 ± -0.5 mmHg; 24 hour reduction of the intraocular pressure (in words) (eye [3]; 24 hour): Except for compound 3, all compounds caused 24 hour reduction of the intraocular pressure; Effect on platelet aggregation (platelet aggregation): affect platelet aggregation; Stimulation of the rat gastric fundus (rat gastric fundus): stimulate
2 | CCCCC[C@H](O)/C=C/[C@H]1C(SCC(N)C(=O)OCC)CC(=O)[C@@H]1C/C=C\CCCC(=O)OCc1ccccc1 (some centres unmarked) [Compound 4] | – | – | 0.75 ± -0.1 | 16.3 ± -0.7 mmHg | -4.3 ± -1.6 mmHg | – | – | – | Maximum ocular irritation, Difference (experimental vs contralateral control eye) (eye [1]; 10 μg): 0.58 ± -0.08; Stimulation of the cat iris sphincter (cat iris sphincter): stimulate; Stimulation of the bovine iris sphincter (bovine iris sphincter): stimulate; Stimulation of the circular preparation of the guinea pig ileum [2]: stimulate; Intraocular pressure, Exp Eye (eye [3]; 10 ug): 14.0 ± -0.7 mmHg; Maximum reduction of intraocular pressure, Difference (Exp Eye vs Cont Eye) (eye [3]; 10 ug): -5.8 ± -1.1 mmHg; Effect on platelet aggregation (platelet aggregation): affect platelet aggregation; Stimulation of the rat gastric fundus (rat gastric fundus): stimulate
3 | CCCCC[C@H](O)/C=C/[C@H]1[C@H](O)CC(=O)[C@@H]1C/C=C\CCCC(=O)OC(C)C [PGE2 -isopropyl ester, reference compound] | – | – | – | – | – | – | – | – | Ocular irritation grade (maximum irritation) (eye [1]; 1 μg): 3 grade; Ocular surface hyperemia grade (eye [4]): ≥ 2.9 grade
4 | CCCCC[C@H](O)/C=C/[C@@H]1[C@@H](C/C=C\CCCC(=O)OC(C)C)[C@@H](O)C[C@H]1O [PGF2α -isopropyl ester, reference compound] | – | – | – | – | – | – | – | – | Ocular irritation grade (maximum irritation) (eye [1]; 1 μg): 3 grade; Ocular surface hyperemia grade (eye [4]): ≥ 2.9 grade

Continued, in another order:

Row | Maximum surface hyperemia of the eye, Difference (Exp Eye vs Cont Eye) (eye [4]) | Maximum surface hyperemia of the eye, Exp Eye (eye [4]) | Compound | Maximum ocular irritation, Difference (experimental vs contralateral control eye) (eye [1]; 3 μg) | Intraocular pressure, Exp Eye (eye [3]; 3 ug) | Maximum reduction of intraocular pressure, Difference (Exp Eye vs Cont Eye) (eye [3]; 3 ug) | Maximum ocular irritation, Difference (experimental vs contralateral control eye) (eye [1]; 1 μg) | Intraocular pressure, Exp Eye (eye [3]; 1 ug) | Maximum reduction of intraocular pressure, Difference (Exp Eye vs Cont Eye) (eye [3]; 1 ug) | further results
5 | 0.3 ± -0.2 | 1.1 ± -0.2 | CCCCC[C@H](O)/C=C/[C@H]1C(SCCC(=O)OCC)CC(=O)[C@@H]1C/C=C\CCCC(=O)OC (some centres unmarked) [Compound 5, 11-Deoxy-11-[3-thio-(1-ethylpropionate)] PGE2 methyl ester] | 0.58 ± -0.08 | 11.5 ± -1.6 mmHg | -9.2 ± -1.2 mmHg | 1.08 ± -0.2 | 12.7 ± -1.0 mmHg | -9.5 ± -0.8 mmHg | Maximum ocular irritation, Difference (experimental vs contralateral control eye) (eye [1]; 10 μg): 2.00 ± -0.1; Reduction of intraocular pressure (in words) (eye [3]): The strongest effect; Reduction of intraocular pressure at low dose (in words) (eye [3]; 1 μg): markedly reduced the pressure; Intraocular pressure, Exp Eye (eye [3]; 10 ug): 12.3 ± -1.3 mmHg; Maximum reduction of intraocular pressure, Difference (Exp Eye vs Cont Eye) (eye [3]; 10 ug): -10.0 ± -0.9 mmHg
6 | 0.8 ± -0.1 | 1.7 ± -0.1 | CCCCC[C@H](O)/C=C/[C@H]1C(SCCO)CC(=O)[C@@H]1C/C=C\CCCC(=O)OC (some centres unmarked) [Compound 6, 11-Deoxy-11-(thio-1-ethanol)-PGE2 methyl ester] | 0.67 ± -0.1 | 13.8 ± -0.9 mmHg | -6.0 ± -1.3 mmHg | 0.92 ± -0.08 | 14.7 ± -1.0 mmHg | -5.8 ± -1.0 mmHg | –
7 | 0.6 ± -0.2 | 1.2 ± -0.2 | CCCCC[C@H](O)/C=C/[C@H]1C(Sc2ccccc2C(=O)OC)CC(=O)[C@@H]1C/C=C\CCCC(=O)OC (some centres unmarked) [Compound 7, 11-Deoxy-11-[thio-2-(methylbenzoate)-]PGE2 methyl ester] | – | – | – | 1.08 ± -0.2 | 16.2 ± -1.3 mmHg | -4.3 ± -0.7 mmHg | –
